One sequence from EP0309566B1, “STLV-III-RELATED POLYPEPTIDES, DIAGNOSTIC SYSTEMS AND ASSAY METHODS” (JOHNSON AND JOHNSON, priority 1987, dated 1994) can be followed below.

Assay type in all cases: binding, human
For one experiment, the system named is antibodies to HIV-1. Put plainly: E8 peptide competition (blocking) assay: serum mixed with peptide (II), peptide (II) as solid phase antigen. As to conditions: last seven samples of Table 7 (antibody positive sera). As to the method: Presented in Table 7 below are data relating to the assay of various patient sera. In addition to the usual assay with peptide (II) as described in Example 4-Procedure A, each serum was assayed against peptide (II) after mixing the serum sample with an effective blocking amount of the peptide (II). Also included in the Table are the results of assaying each sample with commercially available kits.
Furthermore, even samples incorrectly identified as positive by the E8 assay are correctly identified as negative by the E8 peptide competition assay. […] The last seven samples assayed as shown in Table 7 are positive for antibody by both the E8 assay and commercially available assays (with the exception of two false negatives using the Abbott kit) and by the more tedious and time consuming Western blot assay.

In experiment [1] the test system is HIV-1 antibodies. Kind of experiment: ELISA of serum panels: E8 assay (peptide (II) as solid phase antigen, Procedure #1) compared with commercial viral lysate kits. Also noted: key: (-) = False Negatives. The protocol: (§1) • (1) coat ELISA plate with peptide - 1ug/50ul/well in 0.1M NaHCO₃, pH 9; • (2) let plates dry overnight uncovered at 37°C; then wash with PBS; • (3) block plates with 300ul/well of blocking buffer (5% NCS-PBS) for 2 hrs. at 37°C; • (4) shake out blocking buffer and drain well; • (5) add 50ul/well test antiserum (first antibody) for 30 to 120 minutes at 37°C. (If the antiserum is to be diluted, use T-wash.) Dilutions of 1:2 to 1:100 have been used; • (6) shake out test antisera and wash plate six times with PBS-Tween20; • (7) add 100ul/well of labeled specific binding agent in the form of a enzyme-labeled second antibody diluted 1:4000 with T-wash. Maintain 30 to 120 minutes at 37°C; • (8) shake out any unreacted second antibody and wash plate six times with PBS-Tween20; • (9) add 100ul/well OPD substrate (or 5ul ABTS solution) for 20 minutes at RT; • (10) add 50ul/well of 4N H₂SO₄ to stop OPD reaction (or 100ul/well of 1% SDS for ABTS reaction); • (11) read plate on an MR 500 Microplate ELISA plate reader. (490nm for OPD or 405 nm for ABTS). […]
(§2) The ELISA kits described in Example 4A made with peptide (II) were evaluated against a panel of sera comprising sera from normal subjects, patients with disorders or diseases unrelated to AIDS, known AIDS patients, known ARC patients, and patients whose diagnosis is unknown but who are antibody-positive for […] antibodies by commercial tests or by Western blot assay. […]
(In general: In an ELISA, binding on a coated surface is turned into a signal by an enzyme label.)

The subject of experiment [2] is HIV-1 antibodies. The description is as above. Particulars: E8 absorbance cutoff 0.104. On the set-up: key: +: antibody-positive; antibody-negative. As to the method: as §1, §2
In experiment [3] the test system is HIV-1 antibodies. The experiment is described as above. Particulars: 200 normal sera; S.D. 0.017. As to the method:
as §1, with “reader.” for “reader. (490nm for OPD or 405 nm for ABTS).”
as §2

Experiment [4] concerns HIV-1 antibodies. The description is as above. Also noted: key: (+)=False Positives. As to conditions: 6 samples; NPC/NON-AIDS. As to the method: as §1, with “reader.” for “reader. (490nm for OPD or 405 nm for ABTS).”
as §2

“IWGCSGKLICTTAVP [peptide (II), solid phase antigen of the "E8" assay]”: the “reactivity of sera with peptide (II) as solid phase antigen after mixing each serum with peptide (II)” value in the experiment on antibodies to HIV-1 is on record as “effectively blocked”. In addition, the Assay result in the experiment with HIV-1 antibodies [1] (1 sample, AIDS, Sample I.D. 653) is given as “(-)”; in the experiment on HIV-1 antibodies [1] (2 samples, AIDS, Sample I.D. 533,3621), “(-)”; in the experiment with HIV-1 antibodies [1] (2 samples, ARC, Sample I.D. 512,529), “(-)”; in the experiment on HIV-1 antibodies [2] (1 sample, Normal, Sample ID 749), “-”; in the experiment with HIV-1 antibodies [2] (1 sample, Normal, Sample ID 2846) it was “+”; in the experiment on HIV-1 antibodies [2] (198 samples, Diagnosis Normal) it was “-”. In the experiment on HIV-1 antibodies [4], the Assay result is listed as “(+)”. The “Mean Absorbance of Normals” value with HIV-1 antibodies [3] is listed as 0.016.
